Data reported in patent US20100173956A1, “Use of Quaternary Pyridinium Salts as Vasoprotective Agents” (Pharmena Spolka Akcyjna (Pharmena S.A.), priority 2004, published 2010).
Entries after “also recorded” stand apart in the source; their conditions may differ.

Tests used:
TXB2 = assay: Assay of TXB2 in arterial blood plasma (enzyme immunoassay); format: in vivo, Wistar rats; conditions: 30 mg/kg i.v.
Experimental: (§1) The analysis of the thrombolytic response in this experimental set-up was complemented by the assay of 6-keto-PGF1α, TXB2 and PGE2 in arterial blood plasma. For this purpose blood samples (500 μl) were collected in Eppendorff tubes with indomethacin to yield its final concentration of 10 μM, and EDTA to yield the final concentration of 1 mM. Then, the blood samples were spinned for 5 min at 2.000×g. Plasma samples were stored at −70° C. The prostanoids were assayed using the enzyme immunoassay kits (Cayman Chemical Co, Ann Arbor, Mich.).

PGE2 = assay: Assay of PGE2 in arterial blood plasma (enzyme immunoassay); format: in vivo, Wistar rats; conditions: 30 mg/kg i.v.
Experimental: as §1

neutrophils = assay: Latex-induced activation of neutrophils; format: cell-based
[1] = Arterial blood pressure monitoring (hypotensive action); format: in vivo, Wistar rats
Experimental: (§2) Wistar rats of body weight 300-350 g were anaesthetised (thiopental 30 mg kg^−1 i.p.) and heparinised (unfractionated heparin. 800 i.u. kg^−1 i.v.). Arterial blood pressure was measured from cannulated right carotid artery, and extracorporal circulation was established between left carotid artery and left jugular vein. A collagen strip from rabbit tendon of Achilles was superfused with arterial blood in extracorporal circulation at a rate of 1.5 ml min^−1 and its weight was continuously monitored by an auxotonic Harvard transducer.
(§3) During the initial 20-30 min of superfusion the strip was gaining in weight by 80-120 mg because of deposition of platelet-rich thrombi and then in control conditions stayed unchanged during next 3-5 hrs. Thrombolytic response was detected by a fall in weight of a thrombi. Arterial blood pressure was also monitored, so this model enabled the analysis of thrombolytic and hypotensive action of a compound (FIG. 1).

[2] = test system: 6-keto-PGF1α (stable PGI2 metabolite); assay: Assay of 6-keto-PGF1α in arterial blood plasma (enzyme immunoassay); format: in vivo, Wistar rats
Experimental: as §1

platelets = assay: Collagen-induced aggregation in platelet-rich plasma in vitro; format: cell-based; conditions: for effect on collagen-induced aggregation of platelets (FIG. 9): FIG. 9, (1 mg/ml)
platelet-rich thrombi = assay: Thrombolytic activity in rats with extracorporal circulation (method of Gryglewski); format: in vivo, Wistar rats; conditions: for thrombolytic response: single injection, fall in weight of thrombi, maximum response
Experimental: Thrombolytic activity of quaternary pyridinium salts was assessed using original method of Gryglewski et al., (Gryglewski R J, Korbut R, Ocetkiewicz A, Stachura J. In vivo method for quantitation for anti-platelet potency of drugs. Naunyn Schmiedebergs Arch Pharmacol 1978; 302:25-30), the scheme of which was shown on FIG. 1.
as §2, §3

[3] = Anti-atherogenic effect in dyslipidemic patients (plasma TC, TG, HDL); format: in vivo; conditions: 30 mg orally three times a day
Experimental: The anti-atherogenic effect of MNA^+ was investigated in 15 dyslipidemic patients. The enrollment criteria were: high level of TG (≧250 mg/dl) and low level of HDL (≦35 mg/dl for male, ≦45 mg/dl for female). The mean age of the patients was 61.4 (range 45-81 years). The patients were treated with MNA^+ for 2 weeks. The MNA^+ was administered orally, three times a day, one capsule (30 mg MNA^+) after meal. The plasma levels of TC, TG, HDL were measured at baseline and after 2 weeks of therapy. The level of LDL was measured in those cases, where it was possible (due to high TG level).

## C[n+]1cccc(C(N)=O)c1 [MNA^+, 1-methylnicotinamide]
TXB2
  change of TXB2 level in arterial plasma: neither TXB2 nor PGE2 levels changed significantly
PGE2
  change of PGE2 level in arterial plasma: neither TXB2 nor PGE2 levels changed significantly
neutrophils; 1 mM
  inhibition of latex-induced activation of neutrophils: did not inhibit
neutrophils
  effect on latex-induced activation of neutrophils (FIG. 10): Lack of effect; also recorded: did not inhibit
[1]; 30 mg/kg i.v., during thrombolysis
  fall in arterial blood pressure: not associated with a fall in arterial blood pressure
[1]; 30-300 mg/kg
  hypotension: did not cause hypotension
[2]; 30 mg/kg i.v.
  change of 6-keto-PGF1α level / release of PGI2 (in words): concomitant increase in level of 6-keto-PGF1α
[2]; 30 mg/kg i.v., 15 minutes after injection, before injection 104±7 pg/ml
  level of 6-keto-PGF1α in arterial plasma: 460 ± 58 pg/mL
[2]; 30 mg/kg i.v., for at least one hour
  plateau level of 6-keto-PGF1α in arterial plasma: around 400 pg/ml
[2]; indomethacin 5 mg/kg
  release of 6-keto-PGF1α in the presence of indomethacin: abrogated
platelets
  effect on collagen-induced aggregation of platelets (FIG. 9): Lack of effect; also recorded: did not inhibit
platelets; in vitro, up to concentration of 10 mM
  effect on collagen-induced aggregation in platelet-rich plasma: not affected
platelet-rich thrombi; 30 mg/kg i.v.
  thrombolytic response: 42±4%
platelet-rich thrombi; 30 mg/kg i.v., response remained at approximately the same level over the observation period
  duration of thrombolytic response: 2 to 3 h
platelet-rich thrombi; 3-30 mg/kg i.v.
  dose dependence of thrombolysis: concentration-dependent thrombolysis
platelet-rich thrombi; i.v., 3-30 mg/kg tested
  dose of maximum thrombolytic response: 30 mg/kg
platelet-rich thrombi; indomethacin 5 mg/kg
  thrombolytic response in the presence of indomethacin: abrogated
[3]
  change of TC level, baseline to 2 weeks: −15.7%
  change of TG level, baseline to 2 weeks: −47.1%
  increase of HDL level, baseline to 2 weeks: 36.2%
[3]; 15 dyslipidemic patients, baseline 267.0 mg/dl
  TC plasma level after 2 weeks: 225.1 mg/dL
[3]; baseline 39.2 mg/dl
  HDL plasma level after 2 weeks: 53.4 mg/dL
[3]; baseline 472.6 mg/dl
  TG plasma level after 2 weeks: 249.9 mg/dL
[3]; baseline 13.9
  TG/HDL ratio after 2 weeks: 5.8

## C[n+]1cccc(C(=O)[O-])c1 [trigonelline]
platelet-rich thrombi; 30 mg/kg i.v.
  thrombolytic response (in words): Lack of thrombolytic response; also recorded: failed to induce a significant thrombolytic response; also recorded: did not display a significant thrombolytic activity
  thrombolytic response: did not produce any thrombolytic response

## Cn1cc(C(N)=O)ccc1=O [2-PYR, 1-methyl-2-pyridone-5-carboxyamide]
platelet-rich thrombi; 30 mg/kg i.v.
  duration of thrombolytic response (transient): < 15 min
  thrombolytic response (in words): Lack of thrombolytic response; also recorded: failed to induce a significant thrombolytic response; also recorded: did not display a significant thrombolytic activity
  thrombolytic response: < 10%

## CC(=O)Oc1ccccc1C(=O)O [aspirin, reference compound]
platelets
  effect on collagen-induced aggregation of platelets (FIG. 9): abrogated

## C[n+]1cccc(C(=O)NCO)c1 [MNAF^+, 1-methyl-N′-(hydroxymethyl)nicotinamide]
platelet-rich thrombi; 30 mg/kg i.v.
  thrombolytic response (in words): comparable to that induced by 30 mg/kg of MNA^+

## c1ccc2c(c1)[I+]c1ccccc1-2 [DPI, reference compound]
neutrophils
  effect on latex-induced activation of neutrophils (FIG. 10): abrogated

## COc1cc(C(C)=O)ccc1O [apocynin, reference compound]
neutrophils
  effect on latex-induced activation of neutrophils (FIG. 10): abrogated

## O=C(O)c1cccnc1 [nicotinic acid]
[2]; 30 mg/kg i.v.
  change of 6-keto-PGF1α level / release of PGI2 (in words): did not increase
platelet-rich thrombi; 30 mg/kg i.v.
  thrombolytic response (in words): Lack of thrombolytic response; also recorded: failed to induce a significant thrombolytic response; also recorded: did not display a significant thrombolytic activity
  thrombolytic response: 5±0.9%

## NC(=O)c1cccnc1 [nicotinamide]
[2]; 30 mg/kg i.v.
  change of 6-keto-PGF1α level / release of PGI2 (in words): did not increase
platelet-rich thrombi; 30 mg/kg i.v.
  thrombolytic response (in words): Lack of thrombolytic response; also recorded: failed to induce a significant thrombolytic response
  thrombolytic response: 9±0.6%
platelet-rich thrombi; 30 mg/kg i.v., listed as Nicotinamide
  thrombolytic response (in words): did not display a significant thrombolytic activity

## 1-Methyl-3-acetylpyridinium salt [MAP^+]
[2]; 30 mg/kg i.v.
  change of 6-keto-PGF1α level / release of PGI2 (in words): associated with the release of PGI2
platelet-rich thrombi; 30 mg/kg i.v.
  thrombolytic response (in words): comparable to that induced by 30 mg/kg of MNA^+
